SMILES strings stand for the structures.

In assay [1] the target is T1, porcine leukocyte 12/15-Lipoxygenase (Sus scrofa, UniProt P16469).
T1 sequence (P16469 1-663): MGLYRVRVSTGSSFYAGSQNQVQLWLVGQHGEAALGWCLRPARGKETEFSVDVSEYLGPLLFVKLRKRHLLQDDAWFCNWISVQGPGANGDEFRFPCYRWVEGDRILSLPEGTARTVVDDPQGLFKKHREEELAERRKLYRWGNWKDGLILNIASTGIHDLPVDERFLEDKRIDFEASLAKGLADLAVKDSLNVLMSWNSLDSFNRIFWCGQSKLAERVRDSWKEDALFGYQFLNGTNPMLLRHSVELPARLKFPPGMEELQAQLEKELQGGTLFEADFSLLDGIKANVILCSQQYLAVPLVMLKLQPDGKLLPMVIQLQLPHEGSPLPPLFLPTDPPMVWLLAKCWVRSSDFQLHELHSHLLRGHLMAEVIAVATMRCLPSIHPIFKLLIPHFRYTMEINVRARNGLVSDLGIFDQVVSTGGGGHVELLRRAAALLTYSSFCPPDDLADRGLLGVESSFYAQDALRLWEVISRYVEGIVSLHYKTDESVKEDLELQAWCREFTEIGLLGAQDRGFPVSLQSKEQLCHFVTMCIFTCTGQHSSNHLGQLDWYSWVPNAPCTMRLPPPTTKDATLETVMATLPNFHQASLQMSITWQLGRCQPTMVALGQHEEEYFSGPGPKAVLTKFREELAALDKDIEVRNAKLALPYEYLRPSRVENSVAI
Kind of assay: 12/15-Lipoxygenase Enzyme Assay. As to conditions: 70 μM arachidonic acid, 10 minute incubation at room temperature, FOX reagent, absorbance at 620 nm; read-out: inhibition of 12/15-Lipoxygenase with an IC50. The class given is biochemical. An excerpt: This procedure was used for measuring the enzymatic activity of porcine leukocyte 12/15-Lipoxygenase using a […] method based on the ferric oxidation of xylenol orange.
• 96 well flat bottom microfilter plates (VWR, Catalog # 62402-933 9295) • Lipoxygenase screening assay buffer (Cayman, Catalog # 760710) • Porcine leukocyte 12/15-Lipoxygenase (Cayman, Catalog # 60300) • Arachidonic Acid (Sigma, Catalog # A3555) • Xylenol orange tetrasodium salt (Aldrich, Catalog # 227854) • Iron (II) sulfate heptahydrate (Sigma, Catalog # F7002) • Sulfuric acid (95-98%) [18M] • Methanol Procedure
Porcine Leukocyte 12/15-Lipoxygenase (Cayman Cat # 60300) was used in this assay. Test compound and/or vehicle was added to 1.3 μL 12/15-Lipoxygenase in 50 mM Tris-HCl buffer, pH 7.4. The reaction was initiated by addition of 70 μM arachidonic acid in Tris-HCl buffer, pH 7.4, and terminated after a 10 minute incubation at room temperature by addition of FOX reagent (25 mM sulfuric acid, 100 μM xylenol orange, 100 μM iron (II) sulfate, methanol:water 9:1). The yellow color of acidified xylenol orange was converted to a blue color by the lipid hydroperoxide-mediated oxidation of Fe^2+ ions and the interaction of the resulting Fe^3+ ions with the dye. The complex was allowed to form during a 1 hour incubation at room temperature with shaking. Absorbance of the Fe^3+ complex was then measured at […] using a spectrophotometer.
Negative controls contained enzyme during the incubation step but substrate was not added until after the FOX reagent. Compounds are screened at 5 concentrations in triplicate starting at 10 μM

For assay [2], the system named is release of the leukotriene LTB4 from a neutrophil cell line (MPRO cell line). Kind of assay: LTB4-Cell Assay. The settings on record: Mus musculus, 1 h, read-out: inhibition of LTB4 with an EC50. The class given is cell-based. An excerpt: • This procedure was used for measuring the release of the leukotriene LTB4 from a neutrophil cell line using a competitive ELISA technique. Materials and Equipments Materials for Cell Preparation and Experiment • MPRO cell line (ATCC, Catalog # CRL-11422) • Calcium ionophore (A23187) (Sigma, Catalog # C7522) • Nordihydroguaiaretic acid (NDGA) (BioMol ,Catalog # EI101-0001) • Retinoic Acid (all-trans) (ATRA) (Sigma, Catalog # 95152) • Sterile, tissue-culture treated 96-well plates (Corning, Catalog # 3614) Materials for LTB4 ELISA • Precoated (Mouse Anti-Rabbit IgG) EIA 96 Well Strip Plates (Cayman, Catalog # 400004) • Leukotriene B4 AChE Tracer (Cayman Catalog # 420110) • Leukotriene B4 EIA Antiserum (Cayman Catalog # 420112) • Ellman's Reagent (Cayman Catalog # 400050) • EIA Buffer Concentrate (10×) (Cayman Catalog # 400060) • Wash Buffer Concentrate (400×) (Cayman Catalog # 400062) • Plastic plate covers (Cayman Catalog # 400012) Procedure
A mouse promyelocytic cell line (MPRO) was used in this assay. These cells are committed immature neutrophils that can be differentiated into mature neutrophils by treatment with 10 μM all-trans retinoic acid for 72 hours.
Following 72 hours of differentiation, cells were stimulated with 1 μM of a calcium ionophore (A23187) in the presence or absence of test compound or vehicle for 1 hour at 37° C. After this time, supernatant was removed from the cells and the LTB4 levels were determined following manufacturer's instructions, using a Leukotriene B4 EIA kit from Cayman (Cat # 5201 11). The negative controls were media samples from differentiated but un-stimulated cells. The compounds were screened at 5 concentrations in quadruplicate starting at 10 μM.

For assay [3], the target named is T2, human recombinant 5-Lipoxygenase (Homo sapiens, UniProt P09917).
T2 sequence (P09917 1-674): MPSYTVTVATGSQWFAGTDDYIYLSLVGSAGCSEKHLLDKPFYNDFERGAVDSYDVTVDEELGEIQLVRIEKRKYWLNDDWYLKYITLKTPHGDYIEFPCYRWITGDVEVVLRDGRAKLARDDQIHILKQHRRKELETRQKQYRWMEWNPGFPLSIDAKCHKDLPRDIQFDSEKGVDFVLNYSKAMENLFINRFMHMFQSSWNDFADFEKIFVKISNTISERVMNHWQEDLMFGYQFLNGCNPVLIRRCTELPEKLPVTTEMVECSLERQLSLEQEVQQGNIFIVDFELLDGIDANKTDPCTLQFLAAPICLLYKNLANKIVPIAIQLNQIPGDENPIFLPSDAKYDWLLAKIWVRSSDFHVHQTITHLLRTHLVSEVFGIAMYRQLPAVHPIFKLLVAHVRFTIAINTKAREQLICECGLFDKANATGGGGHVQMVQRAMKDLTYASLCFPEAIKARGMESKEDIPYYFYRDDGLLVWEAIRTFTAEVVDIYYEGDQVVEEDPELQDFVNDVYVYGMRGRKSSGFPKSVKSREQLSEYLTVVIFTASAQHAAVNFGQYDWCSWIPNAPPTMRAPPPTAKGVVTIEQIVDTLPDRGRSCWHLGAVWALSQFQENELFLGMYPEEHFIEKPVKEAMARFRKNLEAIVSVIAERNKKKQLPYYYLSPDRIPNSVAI
In words: 5-Lipoxygenase Enzyme Assay. Type of assay: biochemical. The settings on record: 70 μM arachidonic acid, 10 minute incubation at room temperature, FOX reagent, absorbance at 620 nm; read-out: inhibition of 5-Lipoxygenase with an IC50. The procedure, abridged:
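Recombinant human 5-LOX in 50 mM Tris-HCl pH 7.4 was preincubated with compound, then 70 μM arachidonic acid was added for 10 min at room temperature. Hydroperoxide was read by FOX reagent (ferric xylenol orange, 1 h complex formation) as absorbance at 620 nm. Five concentrations in triplicate were tested, starting at 10 μM.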

For assay [4], the system named is LTB4 production in human whole blood. Kind of assay: Inhibition of LTB4 Production in Blood. The class given is cell-based. As to conditions: 1 h, 20 μM A23187, 60 minutes at 37° C., LTB4 in plasma by ELISA, read-out: protection against LTB4 at an EC50. The procedure, abridged: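 Citrated human whole blood preincubated 15 min at 37 °C with compound (top final 30 μM, 1:3 dilutions, quadruplicate), then stimulated with 20 μM A23187 for 60 min at 37 °C. Plasma LTB4 quantified by ELISA; IC50 from percent inhibition versus vehicle.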

Take `Cc1c(O)cc2c(c1C)N(c1ccc(Cl)cc1)CC1(CCC1)C2O` (stereo not shown) [1′-(4-chlorophenyl)-7′,8′-dimethyl-2′,4′-dihydro-1′H-spiro[cyclobutane-1,3′-quinoline]-4′,6′-diol]: the IC50 in assay [1] was < 5 µM.

As a reminder, the EC50 is the concentration needed to bring the measured effect to its halfway point. Consider `COC1c2c(C)c(O)c(C)c(C)c2OCC12CCC2` (stereo not shown) [4-methoxy-5,7,8-trimethylspiro[chroman-3,1′-cyclobutan]-6-ol], for which the EC50 in assay [2] was < 5 µM; in assay [4] it was < 10 µM. For the same molecule, the IC50 in assay [3] is < 0.3 µM.

For `COC1CC2(CCC2)Oc2cc(C)c(O)c(C)c21` (stereo not shown) [4-methoxy-5,7-dimethyl-3,4-dihydrospiro[chromene-2,1′-cyclobutan]-6-ol], the concentration giving a half-maximal response (EC50) in assay [2] was < 5 µM; in assay [4] it was < 10 µM. Moreover, the IC50 in assay [3] was < 0.3 µM.

In the case of `CCc1cc2c(c(CC)c1O)/C(=N/OC)CC1(CCC1)O2` [5,7-diethyl-6-hydroxyspiro[chromene-2,1′-cyclobutan]-4(3H)-one O-methyloxime], the 50% effective concentration (EC50) in assay [2] was < 5 µM; in assay [4], < 10 µM. In assay [3], the IC50 was < 0.3 µM.

With `CCc1cc2c(c(CC)c1O)/C(=N/O)CC1(CCC1)O2` [5,7-diethyl-6-hydroxyspiro[chromene-2,1′-cyclobutan]-4(3H)-one oxime], the 50% effective concentration (EC50) in assay [2] is < 5 µM; in assay [4], < 10 µM. Besides, in assay [3], the IC50 is < 0.3 µM.

For `CC(C)c1cc2c(c(C(C)C)c1O)CCC1(CCC1)O2` [5,7-diisopropyl-3,4-dihydrospiro[chromene-2,1′-cyclobutan]-6-ol], the EC50 in assay [2] is < 5 µM; in assay [4], < 10 µM. In addition, in assay [3], the IC50 was < 0.3 µM.

Consider `Cc1c(O)c(C)c(-c2cnco2)c2c1CCC1(CCC1)O2` [5,7-dimethyl-8-(1,3-oxazol-5-yl)-3,4-dihydrospiro[chromene-2,1′-cyclobutan]-6-ol], for which the EC50 in assay [2] was < 5 µM; in assay [4], < 10 µM. Besides, the IC50 in assay [3] is < 0.3 µM.

Turning to `CCCCc1cc(-c2c(C)c(O)c(C)c3c2OC2(CCC2)CC3)no1` [5,7-dimethyl-8-(5-butyl-isoxazol-3-yl)-3,4-dihydrospiro[chromene-2,1′-cyclobutan]-6-ol], the EC50 in assay [2] was < 5 µM; in assay [4], < 10 µM. Besides, the IC50 in assay [3] was < 0.3 µM.

In the case of `Cc1c(C)c2c(c(C)c1O)C(C#N)CC1(CCC1)O2` (stereo not shown) [6-hydroxy-5,7,8-trimethyl-3,4-dihydrospiro[chromene-2,1′-cyclobutane]-4-carbonitrile], the concentration giving a half-maximal response (EC50) was < 5 µM in assay [2] and < 10 µM in assay [4]. In addition, in assay [3], the IC50 is < 0.3 µM.

Regarding `Cc1cc2c(c(C)c1O)/C(=N/O)CC1(CCC1)O2` [6-hydroxy-5,7-dimethylspiro[chromene-2,1′-cyclobutan]-4(3H)-one oxime], the EC50 in assay [2] was < 5 µM; in assay [4] it was < 10 µM. In addition, the IC50 in assay [3] is < 0.3 µM.

With `CCO/N=C1\CC2(CCC2)Sc2c(C)c(C)c(O)c(C)c21` [6′-hydroxy-5′,7′,8′-trimethylspiro[cyclobutane-1,2′-thiochromen]-4′(3′H)-one O-ethyloxime], the EC50 is < 5 µM in assay [2] and < 10 µM in assay [4]. In addition, in assay [3], the IC50 is < 0.3 µM.

In the case of `CCO/N=C1\CC2(CCC2)Sc2cc(C)c(O)c(C)c21` [6′-hydroxy-5′,7′-dimethylspiro[cyclobutane-1,2′-thiochromen]-4′(3′H)-one O-ethyloxime], the EC50 is < 5 µM in assay [2] and < 10 µM in assay [4]. Further, the IC50 in assay [3] is < 0.3 µM.

With `CO/N=C1\CC2(CCC2)Sc2cc(C)c(O)c(C)c21` [6′-hydroxy-5′,7′-dimethylspiro[cyclobutane-1,2′-thiochromen]-4′(3′H)-one O-methyloxime], the results for the EC50 in assay [2] and in assay [4] were < 5 µM and < 10 µM, respectively. In assay [3], the IC50 is < 0.3 µM.

Regarding `Cc1c(O)cc2c(c1C)OCC1(CCC1)C2` [7,8-dimethylspiro[chroman-3,1′-cyclobutan]-6-ol], the concentration for a half-maximal effect (EC50) in assay [2] is < 5 µM; in assay [4] it was < 10 µM. In assay [3], the IC50 was < 0.3 µM.

Take `Cc1c(O)cc2c(c1C)OCC1(CC1)C2` [7,8-dimethylspiro[chroman-3,1′-cyclopropan]-6-ol]: the figures for the EC50 in assay [2] and in assay [4] were < 5 µM and < 10 µM, respectively. Also, the IC50 in assay [3] was < 0.3 µM.

`CCONCc1c(C)c(O)c(C)c2c1OC1(CCC1)CC2` [8-[(ethoxyamino)methyl]-5,7-dimethyl-3,4-dihydrospiro[chromene-2,1′-cyclobutan]-6-ol]: the EC50 was < 5 µM in assay [2] and < 10 µM in assay [4]. Moreover, in assay [3], the IC50 is < 0.3 µM.

Regarding `CONCc1c(C)c(O)c(C)c2c1OC1(CCC1)CC2` [8-[(methoxyamino)methyl]-5,7-dimethyl-3,4-dihydrospiro[chromene-2,1′-cyclobutan]-6-ol], the figures for the concentration for a half-maximal effect (EC50) in assay [2] and in assay [4] were < 5 µM and < 10 µM, respectively. Moreover, the IC50 in assay [3] is < 0.3 µM.

Values taken from patent US7576094B2, “Spiro derivatives as lipoxygenase inhibitors” (Eli Lilly and Company, priority 2004, dated 2009).
